According to patent publication US5935966A, “Pyrimidine carboxylates and related compounds and methods for treating inflammatory conditions” (Signal Pharmaceuticals, Inc., priority 1996, dated 1999):

Experiments:
NFκB and AP-1 = NFκB and AP-1 luciferase reporter assays in stable Jurkat T-cells (PMA/PHA stimulated); format: cell-based, human; details: Homo sapiens, average of NFκB and AP-1 assays, read-out: ICm (average of the measurements obtained from the NFκB and AP-1 assays)
Text: Stable human Jurkat T-cells containing an NFκB binding site (from the MHC promoter) fused to a minimal SV-40 promoter driving luciferase expression were used in this experiment. Cells were split to 3×10^5 cells/mL every 2-3 days (cell concentration should not exceed 1×10^6 cells/mL to keep the cells proliferating in log phase). These cells were counted, resuspended in fresh medium containing 10% Serum-Plus at a density of 1×10^6 cells/mL and plated in 96 well round bottom plates (200 μ.LAMBDA. per well) 18 hours prior to starting the experiment.
Compounds of this invention, dissolved in dimethyl sulfoxide (3.3, 0.33 and 0.03 μg/mL), were then added to the 96 well plates containing the cells and the plates were incubated for 0.5 h at 37° C. Then 50 ng/mL of phorbol 12-myristate-13-acetate (PMA) and 1 μg/mL of phytohemagglutinin (PHA) were added to each well and the cells were incubated for an additional 5 h at 37° C. The plates were centrifuged at 2200 RPM for 3 minutes at room temperature and then the medium was removed. To each well was added 60 μL of cell lysis buffer and the plates were left at room temperature for 0.25 h. Then 40 μL of each cell extract was transferred to a black 96 well plate and 50 μL of luciferase substrate buffer was added. Luminescence was immediately measured using a Packard TopCount.
For AP-1, the assay was run as described above for NFκB except stable Jurkat T-cells were used that contained a collagenase promoter driving luciferase expression. In addition, the concentration of PMA used was 5 ng/mL.
The IC50 values reported in Table 3 are the average of the measurements obtained from the NFκB and AP-1 assays described above.

[1] = tested on: popliteal lymph node (graft vs. host); details: Morris et al. 1990; cited from earlier work
[2] = tested on: delayed-type hypersensitivity response to oxazolone; details: Morris et al. 1990; cited from earlier work

Structure (SMILES) | IC50 (NFκB and AP-1) [µM] | further results
CCOC(=O)c1cnc(N(C)N2C(=O)C=C(C)C2=O)nc1-c1ccsc1 [Example 89, ETHYL 2-[N-(1'-AMINOCITRACONAMIDO-N-METHYL)]-4-(3-THIENYL)PYRIMIDINE-5-CARBOXYLATE] | 0.2 | 
CC1=CC(=O)N(Nc2ncc(C(=O)c3ccccc3)c(C(F)(F)F)n2)C1=O [Example 87, 5-BENZOYL 2-[N-(1'-AMINOCITRACONAMIDO)]-4-TRIFLUOROMETHYLPYRIMIDINE] | 0.55 | 
COC(=O)c1cnc(N(C)N2C(=O)C=C(C)C2=O)nc1C(F)(F)F [Example 81, METHYL 2-[N-(1'-AMINOCITRACONAMIDO)-N-METHYL]-4-TRIFLUOROMETHYLPYRIMIDINE-5-CARBOXYLATE] | 0.1 | 
CCOC(=O)c1cnc(N(C)N2C(=O)C=C(C)C2=O)nc1CC [Example 73, ETHYL 2-[N-(1'-AMINOCITRACONAMIDO)-N-METHYL]-4-ETHYLPRYRIMIDINE-5-CARBOXYLATE] | 0.05 | 
CCOC(=O)c1cnc(NN2C(=O)C=C(C)C2=O)nc1-c1ccc(C)s1 [Example 90, ETHYL 2-[N-(1'-AMINOCITRACONAMIDO)]-4-[2'-(5'-METHYLTHIENYL)]PYRIMIDINE-5-CARBOXYLATE] | 0.06 | 
O=P1(N(CCCl)CCCl)NCCCO1 (stereo not shown) [cyclophosphamide] |  | activity in popliteal lymph node (graft vs. host) model [1]: active; activity in delayed-type hypersensitivity (oxazolone) model [2]: active
CCOC(=O)c1cnc(NN2C(=O)C=C(c3ccccc3)C2=O)nc1C(F)(F)F [Example 40, ETHYL 2-[N-(1'-AMINO-3'-PHENYLMALEIMIDO)]-4-TRIFLUOROMETHYLPYRIMIDINE-5-CARBOXYLATE] | 1 | 
CCOC(=O)c1cnc(N(C)N2C(=O)C=C(C)C2=O)nc1-c1cccs1 [Example 85, ETHYL 2-[N-(1'-AMINOCITRACONAMIDO-N-METHYL)]-4-(2'-THIENYL)PYRIMIDINE-5-CARBOXYLATE] | 0.02 | 
COC(=O)c1cnc(NN2C(=O)C=C(C)C2=O)nc1-c1cccs1 [Example 83, METHYL 2-[N-(1'-AMINOCITRACONAMIDO)]-4-(2'-THIENYL)PYRIMIDINE-5-CARBOXYLATE] | 0.08 | 
CCOC(=O)c1cnc(N(C(C)=O)N2C(=O)C=C(C)C2=O)nc1C(F)(F)F [Example 75, ETHYL 2-[N-ACETYL-N-(1'-AMINOCITRACONAMIDO)]-4-TRIFLUOROMETHYLPYRIMIDINE-5-CARBOXYLATE] | 0.4 | 

The next lines start with results.

IC50 (NFκB and AP-1) [µM] | Structure (SMILES) | further results
0.4 | CCOC(=O)c1cnc(-c2ccc(C(F)(F)F)cc2)nc1NN1C(=O)C=C(C)C1=O [Example 121, ETHYL 4-[N-(1'-AMINOCITRACONAMIDO)]-2-(4'-TRIFLUOROMETHYLPHENYL)PYRIMIDINE-5-CARBOXYLATE] | 
0.4 | CCc1nc(N(C)N2C(=O)C=C(C)C2=O)ncc1C(=O)c1ccccc1 [Example 102, 5-BENZOYL 2-[N-(1'-AMINOCITRACONAMIDO)-N-METHYL]-4-ETHYLPYRIMIDINE] | 
7 | CCOC(=O)c1cnc(Cc2ccccc2)nc1NN1C(=O)C=C(C)C1=O [Example 119, ETHYL 4-[N-(1'-AMINOCITRACONAMIDO)]-2-BENZYLPYRIMIDINE-5-CARBOXYLATE] | 
4.9 | CCc1nc(N(C)N2C(=O)C=C(C)C2=O)ncc1CO [Example 111, 2-[N-(1'-AMINOCITRACONAMIDO)-N-METHYL]-4-ETHYL-5-(HYDROXYMETHYL)PYRIMIDINE] | 
8 | CCOC(=O)c1cnc(-c2cccc([N+](=O)[O-])c2)nc1NN1C(=O)C=C(C)C1=O [Example 120, ETHYL 4-[N-(1'-AMINOCITRACONAMIDO)]-2-(3'-NITROPHENYL)-PYRIMIDINE-5-CARBOXYLATE] | 
1.42 | CCc1nc(N(C)N2C(=O)C=C(C)C2=O)ncc1-c1noc(C)n1 [Example 129, 2-[N-(1'-AMINOCITRACONAMIDO)-N-METHYL]-4-ETHYL-5-[5"-METHYL-1",2",4"-OXADIAZOLYL]PYRIMIDINE] | 
1 | CCc1nc(N(C)N2C(=O)C=C(C)C2=O)ncc1-c1nc(C)co1 [Example 126, 2-[N-(1'-AMINOCITRACONAMIDO)-N-METHYL]-4-ETHYL-5-[2"-(4"-METHYL)OXAZOLYL]PYRIMIDINE] | 
0.6 | CCc1nc(NN2C(=O)C=C(C)C2=O)ncc1C(=O)c1ccccc1 [Example 101, 5-BENZOYL 2-[N-(1'-AMINOCITRACONAMIDO)]-4-ETHYLPYRIMIDINE] | 
0.6 | CCc1nc(N(C)N2C(=O)C=C(C)C2=O)ncc1COC [Example 112, 2-[N-(1'-AMINOCITRACONAMIDO)-N-METHYL]-4-ETHYL-5-(METHOXYMETHYL)PYRIMIDINE] | 
1.1 | CCOC(=O)OCc1cnc(NN2C(=O)C=C(C)C2=O)nc1C(F)(F)F [Example 114, 2-[N-(1'-AMINOCITRACONAMIDO)]-5-(ETHOXYMETHYLCARBONATE)-4-TRIFLUOROMETHYLPYRIMIDINE] | 
1 | COCc1cnc(NN2C(=O)C=C(C)C2=O)nc1C(F)(F)F [Example 113, 2-[N-(1'-AMINOCITRACONAMIDO)]-5-(METHOXYMETHYL)-4-TRIFLUOROMETHYLPYRIMIDINE] | 
0.2 | CC1=CC(=O)N(Nc2nc(-c3cccs3)ncc2C2=NCCO2)C1=O [Example 140, 4-[N-(1'-AMINOCIACONAMIDO)]-5-(4",5"-DIHYDRO-2"-OXAZOLYL)-2-(2'"-THIENYL)PYRIMIDINE] | 
0.3 | CCCC(=O)N(c1ncc(C(=O)OCC)c(C(F)(F)F)n1)N1C(=O)C=C(C)C1=O [Example 95, ETHYL 2-[N-(1'-AMINOCITRACONAMIDO-N-BUTANOYL)]-4-TRIFLUOROMETHYLPYRIMIDINE-5-CARBOXYLATE] | 
0.8 | CCOC(=O)c1cnc(NN2C(=O)C=C(C)C2=O)nc1-c1cc2ccccc2s1 [Example 93, ETHYL 2-[N-(1'-AMINOCITRACONAMIDO)]-4-(2'-THIANAPHTHYL)PYRIMIDINE-5-CARBOXYLATE] | 
